Results published in US5382584A, “Adenosine re-uptake inhibiting derivatives of diphenyl oxazoles, thiazoles and imidazoles” (Bristol-Myers Squibb Company, priority 1994, dated 1995).
Structures can show the parent of a compound that is named as a salt.

Experiment: neuroprotective activity of single enantiomers (test not specified)
Description: A chiral synthetic procedure was also developed to provide single enantiomers of certain stereoisomeric compounds of Formula I. The procedure is illustrated in Scheme III. This synthesis results in a Formula I compound with a chiral center in the piperazine ring. […] While both enantiomers were neuroprotective, the S-(-)-enantiomer had about 30 times the activity of the R-(+)-enantiomer. [drawing 11]

Row | Structure (SMILES) | neuroprotection | activity relative to the R-(+)-enantiomer (neuroprotective activity)
1 | Cl.Cl.Cl.NC(=O)[C@H]1CN(Cc2nc(-c3ccccc3)c(-c3ccccc3)o2)CCN1CC(=O)Nc1c(Cl)cc(N)cc1Cl.O [R-(+)-enantiomer, R-(+)-2-(aminocarbonyl)-N-(4-amino-2,6-dichlorophenyl)-4-[(4,5-diphenyl-2-oxazolyl)methyl]-1-piperazineacetamide trihydrochloride monohydrate] | neuroprotective | 
2 | NC(=O)[C@@H]1CN(Cc2nc(-c3ccccc3)c(-c3ccccc3)o2)CCN1CC(=O)Nc1c(Cl)cc(N)cc1Cl [S-(-)-enantiomer, S-(-)-2-(aminocarbonyl)-N-(4-amino-2,6-dichlorophenyl)-4-[(4,5-diphenyl-2-oxazolyl)methyl]-1-piperazineacetamide Trihydrochloride] | neuroprotective | about 30 times
